According to US11180498B2, “Substituted pyrrolo[2,3-b]pyridines, pyrazolo[3,4-d]pyrimidines and [1,2,3]triazolo[4,5-b]pyridines as potent antivirals” (The Regents of the University of California, priority 2017, dated 2021):

Assays:
Echovirus 11 = assay: Virus CPE assay, ECHO11 in LLC cells; format: cell-based; conditions: Enterovirus B, >10 = no antiviral activity at 10 μM
Poliovirus 3 = assay: microbe, parasite or virus in culture; format: cell-based; conditions: Enterovirus C, read-out: EC50 PV3
[1] = test system: Enterovirus D68 strain US/KY/14-18953; assay: Virus CPE assay, Enterovirus D68 US/KY/14-18953 in RD cells; format: cell-based; conditions: Enterovirus D
Method: (§1) Cells growing in 96 well plates are infected with a given virus at given low multiplicities of infection pre-determined to result in 100% cytopathic effects (CPE) in the cultures after 3-4 days incubation. Cultures are monitored daily for microscopic signs of typical CPE: rounding of cells and detachment. […] Dead cells and debris are washed out and the remaining blue stain intensity in each well is quantified by spectrophotometry at a wavelength of 590 nm (OD590) as a measurement of viability. […] Serial 2-fold dilutions of an active compound are prepared. […] Table 4 provides the results of cell-based assays with RD cells evaluating the antiviral activities of certain representative compounds of the present technology with certain strains of Enterovirus D68, namely strains Fermon (“D68/Fermon”), US/Mo/14-18949 (“D68/US/Mo/14-18949”), and US/KY/14-18953 (“D68/US/KY/14-18953”). The values indicated in the strain columns are EC50 values in μM units. The CC50 values (in μM units) for RD cells are also provided for evaluation of SI50.

Poliovirus 1 = assay: microbe, parasite or virus in culture; format: cell-based; conditions: Enterovirus C, read-out: EC50 PV1
[2] = Cytotoxicity (CC50) in RD cells; format: cell-based; conditions: human
Method: (§2) Each compound is initially tested against each virus at 10 μM in a virus CPE assay. A compound that is active against a virus, protecting the cells from CPE, is further evaluated for its 50% effective concentration (EC50) value and 50% cytotoxicity concentration (CC50) value. Serial 2-fold dilutions of an active compound are prepared. For EC50 value determination, a 7-point dose-response curve is constructed using a virus CPE assay and EC50 value is estimated using four parameter model or sigmoidal model. For CC50 value determination, cells are incubated with serial 2-fold dilutions of a compound for the same period as the virus CPE assay, and then cells were fixed, stained and read as in the virus CPE assay.
Table 4 provides the results of cell-based assays with RD cells evaluating the antiviral activities of certain representative compounds of the present technology with certain strains of Enterovirus D68, namely strains Fermon (“D68/Fermon”), US/Mo/14-18949 (“D68/US/Mo/14-18949”), and US/KY/14-18953 (“D68/US/KY/14-18953”). The values indicated in the strain columns are EC50 values in μM units. The CC50 values (in μM units) for RD cells are also provided for evaluation of SI50.

Coxsackievirus B3-H3 = assay: Virus CPE assay, CVB3-H3 in HeLa-RW cells; format: cell-based; conditions: >10/>25 = no antiviral activity at 10 or 25 μM
Echovirus 6 = assay: Virus CPE assay, ECHO06 in LLC cells; format: cell-based; conditions: Enterovirus B, >10 = no antiviral activity at 10 μM
HeLa-RW cells = assay: Cytotoxicity (CC50) in HeLa-RW cells; format: cell-based; conditions: concentration that reduces host cell viability by 50%
Method: as §2
(§3) Table 3 provides the compound concentration in μM units that reduces cell viability of the host cell by 50% (CC50) for certain compounds of the present technology for HeLa-RW and LLC cells. Blank cells indicate that the cytotoxicity assessment is not yet complete.

Coxsackievirus A9 = assay: Virus CPE assay, COX A9 in LLC cells; format: cell-based; conditions: Enterovirus B, >10 = no antiviral activity at 10 μM
Coxsackievirus B2 = assay: Virus CPE assay, CVB2 in HeLa-RW cells; format: cell-based; conditions: Enterovirus B, >10 = no antiviral activity at 10 μM
Echovirus 7 = assay: Virus CPE assay, ECHO07 in LLC cells; format: cell-based; conditions: Enterovirus B, >10 = no antiviral activity at 10 μM
Coxsackievirus B4 = assay: Virus CPE assay, CVB4 in HeLa-RW cells; format: cell-based; conditions: Enterovirus B, >10 = no antiviral activity at 10 μM
Enterovirus 71 = assay: Virus CPE assay, EV71 in LLC cells; format: cell-based; conditions: Enterovirus A, >10 = no antiviral activity at 10 μM
Echovirus 30 = assay: Virus CPE assay, ECHO30 in LLC cells; format: cell-based; conditions: Enterovirus B, >10 = no antiviral activity at 10 μM
Coxsackievirus B5 = assay: Virus CPE assay, CVB5 in HeLa-RW cells; format: cell-based; conditions: Enterovirus B, >10 = no antiviral activity at 10 μM
Echovirus 25 = assay: Virus CPE assay, ECHO25 in LLC cells; format: cell-based; conditions: Enterovirus B, >10 = no antiviral activity at 10 μM
Coxsackievirus B1 = assay: Virus CPE assay, CVB1 in HeLa-RW cells; format: cell-based; conditions: Enterovirus B, >10 = no antiviral activity at 10 μM
Echovirus 9 = assay: Virus CPE assay, ECHO09 in LLC cells; format: cell-based; conditions: Enterovirus B, >10 = no antiviral activity at 10 μM
[3] = test system: Enterovirus D68 strain US/Mo/14-18949; assay: Virus CPE assay, Enterovirus D68 US/Mo/14-18949 in RD cells; format: cell-based; conditions: for EC50: Enterovirus D, RD cells
Method: as §1

LLC cells = assay: Cytotoxicity (CC50) in LLC cells; format: cell-based; conditions: concentration that reduces host cell viability by 50%
Method: as §2, §3

[4] = test system: Enterovirus D68 strain Fermon; assay: Virus CPE assay, Enterovirus D68 Fermon in RD cells; format: cell-based; conditions: Enterovirus D
Method: as §1

Enterovirus D68 = assay: Antiviral cell-based assays, summary for at least one strain; conditions: Enterovirus D, not named, read-out: EC50 against at least one strain
Method: as §1

[5] = Cytotoxicity (CC50) in LLC cells; format: cell-based; conditions: LLC cells; concentration that reduces host cell viability by 50%
Method: as §2, §3

Row | SMILES | EC50 (Echovirus 11) | EC50 (Poliovirus 3) | EC50 [1] | EC50 (Poliovirus 1) | CC50 [2] | EC50 (Coxsackievirus B3-H3) | EC50 (Echovirus 6) | CC50 (HeLa-RW cells) | EC50 (Coxsackievirus A9) | EC50 (Coxsackievirus B2) | EC50 (Echovirus 7) | EC50 (Coxsackievirus B4) | EC50 (Enterovirus 71) | EC50 (Echovirus 30) | EC50 (Coxsackievirus B5) | EC50 (Echovirus 25) | EC50 (Coxsackievirus B1) | EC50 (Echovirus 9) | EC50 [3] | EC50 [4] | other results
1 | CC(C)n1ncc2c(C(=O)Nc3ccccc3F)cc(-c3cccs3)nc21 [JX-001, reference compound] | 1.5 ± 0.4 µM | 7 µM | 0.5 ± 0.17 µM | 7 µM | 200 µM | 1.4 ± 0.6 µM | 2.3 ± 0.9 µM | 12.5 µM | 2.6 ± 0.9 µM | 2.8 ± 0.4 µM | 2.4 µM | 2.3 µM | 2.3 ± 1.2 µM | 1.2 µM | 2.3 µM | 3 µM | 2.4 ± 0.2 µM | 2.1 ± 1.2 µM | 0.33 ± 0.05 µM | 0.35 ± 0.05 µM | CC50 (LLC cells): 50 µM
2 | CC(C)n1ccc2c(C(=O)Nc3ccccn3)cc(-c3cccs3)nc21 [JX-072] | – | > 10 µM | 0.6 µM | > 10 µM | 25 µM | 2.2 ± 0.4 µM | – | 18.8 µM | – | 2.33 µM | 3 µM | – | 1.2 µM | – | – | – | 1.56 µM | – | – | < 0.4 µM | EC50 (Enterovirus D68): < 1 µM; CC50 (LLC cells): > 200 µM
3 | CC(C)n1ncc2c(C(=O)Nc3ccc(F)cc3)nc(-c3cccs3)nc21 [JX-036] | > 10 µM | > 10 µM | – | > 10 µM | – | > 10 µM | > 10 µM | – | > 10 µM | > 10 µM | > 10 µM | > 10 µM | > 10 µM | > 10 µM | > 10 µM | > 10 µM | > 10 µM | > 10 µM | – | – | –
4 | CC(C)n1ccc2c(C(=O)Nc3cccnc3)cc(-c3cccs3)nc21 [JX-062] | 1.2 µM | > 10 µM | 0.26 ± 0.07 µM | > 10 µM | 25 µM | 1.3 µM | – | 18 µM | – | 1.2 µM | – | 1.2 µM | 0.8 µM | – | 1.2 µM | – | 1.2 µM | 0.4 µM | 0.13 ± 0.03 µM | 0.16 ± 0.03 µM | EC50 (Enterovirus D68): < 1 µM; CC50 (LLC cells): 25 µM
5 | CC(C)n1ccc2c(C(=O)Nc3ccc(F)cc3)cc(-c3cccs3)nc21 [JX-037] | – | > 25 µM | 1.1 ± 0.3 µM | > 25 µM | > 200 µM | 3.1 ± 0.1 µM | – | – | – | 3.6 ± 0.6 µM | – | 3.1 ± 0.1 µM | 2.2 µM | – | 2.7 ± 0.6 µM | – | 3.6 ± 0.6 µM | – | 0.57 ± 0.15 µM | 0.86 ± 0.31 µM | EC50 (Enterovirus D68): < 1 µM; SI ([3]; Enterovirus D68/US/Mo/14-18949, >200/0.57): over 350; CC50 [5]: 100 µM
6 | CC(C)n1ccc2c(C(=O)Nc3ccncc3)cc(-c3cccs3)nc21 [JX-063] | – | > 10 µM | – | > 10 µM | – | > 10 µM | – | – | – | > 10 µM | – | > 10 µM | – | – | > 10 µM | – | > 10 µM | – | – | – | –
7 | CC(C)n1nnc2c(C(=O)Nc3ccc(F)cc3)cc(-c3cccs3)nc21 [JX-035] | > 10 µM | > 10 µM | – | > 10 µM | – | > 10 µM | > 10 µM | – | > 10 µM | > 10 µM | > 10 µM | > 10 µM | > 10 µM | > 10 µM | > 10 µM | > 10 µM | > 10 µM | > 10 µM | – | – | –
